This note sets out measurements from US6403826B1, “Corrosion-inhibiting coating composition for metals” (Ciba Specialty Chemicals Corporation, priority 1996, dated 2002).

Experiment [1] can be described thus: Salt spray test DIN 50 021 SS, 168 hours, of acrylic dispersion coating (Maincote HG-54) with corrosion inhibitor; corrosion protection factor CPF. To be noted: salt spray 168 hours, coat thickness 50 to 55 μm; for CPF film / CPF metal: maximum 6 points, greater = better; for CPF: sum of film and metal, maximum 12 points. Here is the method:
(§1) In order to prepare the coating formulation (acrylic dispersion based on Maincote HG-54), components 1 to 8 (formulation without amine salt) and components 1 to 9 (formulation comprising an amine salt) are employed in the sequence stated (see Table 1).
(§2) Components 1 to 8 or 1 to 9 are dispersed using a high-speed stirrer at 3000 revolutions/minute to a degree of ground fineness or ground particulate nature of <15 μm. The outcome of dispersing the pigment paste thus obtained is assessed by determining the grindometer value (ISO 1524).The amount of the novel salts employed is based on the overall solids content of the formulation without salt (overall solids content 47%). Accordingly, an addition of, say, 1.0% of amine salt to 100 g of dispersion denotes, for example, an amount of 0.47 g. To complete the coating formulation, components 10 to 16 of Table 1 are added at a reduced stirring speed (1000 revolutions/minute) in the stated sequence. Subsequently, the pH of the formulation is checked and, if appropriate, is adjusted prior to application to a value of from 8 to 8.5 using ammonia solution (25% strength).
(§3) The coating formulations are applied to steel panels (19×10.5 cm) of the Bonder type (cold-rolled degreased steel; manufactured by Chemetall, Frankfurt am Main/Germany) in a coat thickness which after drying amounts to 50-55 μm. Drying conditions: 10 days at room temperature.
(§4) Prior to the beginning of weathering, the “coating films” undergo defined damage in the form of a parallel cut (i.e. parallel to the longest panel edge) using a Bonder cross-cut instrument (Mod. 205; manufactured and sold by Lau, 5870 Hemer/Germany). The panel edges are protected by applying an edge protector (Icosit® 255; manufactured by Inertol AG, Winterthur/Switzerland).
(§5) The samples are subsequently subjected to accelerated weathering in a salt spray test in accordance with DIN 50 021 SS for 168 hours (Table 2) or to a humidity test in accordance with ASTM D 4585-87 for 330 hours (Table 3). The assessment of the results is based on the relevant DIN standards in accordance with an evaluation key, by the indication of a corrosion protection value CPF (Corrosion Protection Factor). The CPF is an additive term composed of an assessment of the coating (film) and an assessment of visible underfilm corrosion and appearance of the metal surface, and has a maximum of 12 points. The individual maximum values are 6 points each. The greater the CPF, the better the protection against corrosion.

A short description of experiment [2]: Subfilm migration in the wet state (cathodic delamination) along the artificial damage, DIN 53 167, after the salt spray test. To be noted: after salt spray 168 hours, coat thickness 50 to 55 μm, lesser = more effective.
From the text: as §3, §4
(§6) As additional assessment criteria, the “subfilm migration in the wet state” (cathodic delamination) along the artificial damage side is determined, after the end of the salt spray test, in accordance with DIN 53 167. […] After the end of the humidity test, the wet adhesion of the coating formulation is determined in accordance with DIN 53 151 by making a crosshatch cut followed by the tape tearoff test. According to DIN 53 151 (scale from Gt 0 to Gt 5) a crosshatch value of Gt 0 corresponds to completely intact adhesion of the coating film, whereas Gt 5 corresponds to inadequate adhesion.

The nature of experiment [3]: Humidity test ASTM D 4585-87, 330 hours, of acrylic dispersion coating (Maincote HG-54) with corrosion inhibitor; corrosion protection factor CPF. To be noted: humidity test 330 hours, coat thickness 45 to 50 μm; for CPF film / CPF metal: maximum 6 points, greater = better; for CPF: sum of film and metal, maximum 12 points. Here is the method: as §1, §2
[…] Drying conditions: 10 days at room temperature.
as §4, §5

Experiment [4] is described as follows: Wet adhesion of the coating formulation, DIN 53 151 crosshatch cut and tape tearoff test, after the humidity test. To be noted: after humidity test 330 hours, scale Gt 0 (completely intact adhesion) to Gt 5 (inadequate adhesion). Here is the method:
as §3, §6

Where [5] appears, read: 1% inhibitor on overall solids content.
Setting [6] is: 2% inhibitor on overall solids content.

Turning to `CCCCCCCCCCCCN(CP(=O)(O)O)CP(=O)(O)O.OCCN(CCO)CCO.OCCN(CCO)CCO` [Example 16, n-Dodecylaminobismethylenephosphonic Acid, Salt with Two Equivalents of Triethanolamine], the CPF film in experiment [1] (setting [5]) and in experiment [3] (setting [6]) was 4.8 each time. Besides, the CPF metal is 4.4 in experiment [1] (setting [5]) and 3.6 in experiment [3] (setting [6]). For the same compound, the CPF in experiment [1] (1% inhibitor) is given as 9.2; in experiment [3] (2% inhibitor) it was 8.4. In experiment [2] (1% inhibitor), the “Cathodic delamination (mm total)” value amounted to 16 mm. Further, the “Wet adhesion (Gt value)” value in experiment [4] (2% inhibitor) turned out to be 0 Gt.
`CCCCCCCCCCN(CP(=O)(O)O)CP(=O)(O)O.CCN1CCOCC1.CCN1CCOCC1` [Example 8, n-Decylaminobismethylenephosphonic Acid, Salt with Two Equivalents of N-ethylmorpholine]: the CPF film in experiment [1] (setting [5]), in experiment [1] (setting [6]) and in experiment [3] (setting [5]) was 5.2 each time. The CPF metal in experiment [1] (setting [5]) turned out to be 5.4; in experiment [1] (setting [6]), 5.2; in experiment [3] (setting [5]), 4.7. In addition, the CPF in experiment [1] (1% inhibitor) is 10.6; in experiment [1] (2% inhibitor) it was 10.4; in experiment [3] (1% inhibitor), 9.9. Moreover, the figures for the “Cathodic delamination (mm total)” value in experiment [2] (1% inhibitor) and in experiment [2] (2% inhibitor) were 12 mm and 10 mm, respectively. The “Wet adhesion (Gt value)” value in experiment [4] (1% inhibitor) is 0-1 Gt.
`CCCCCCCCN(CP(=O)(O)O)CP(=O)(O)O.CCN1CCOCC1.CCN1CCOCC1` [Example 9, n-Octylaminobismethylenephosphonic Acid, Salt with Two Equivalents of N-ethylmorpholine]: the CPF film in experiment [1] (setting [5]) is 5.6; in experiment [3] (setting [5]), 4.4; in experiment [3] (setting [6]), 4.8. For the same compound, the CPF metal in experiment [1] (setting [5]) is listed as 5.4; in experiment [3] (setting [5]) it was 4.0; in experiment [3] (setting [6]) it was 5.4. For the same compound, the CPF in experiment [1] (1% inhibitor) was found to be 11.0; in experiment [3] (1% inhibitor), 8.4; in experiment [3] (2% inhibitor) it was 10.2. In addition, in experiment [2] (1% inhibitor), the “Cathodic delamination (mm total)” value worked out at 12 mm. The “Wet adhesion (Gt value)” value in experiment [4] (1% inhibitor) and in experiment [4] (2% inhibitor) was 0 Gt throughout.
Regarding `CCCCCCCCCCN(CP(=O)(O)O)CP(=O)(O)O.OCCN(CCO)CCO.OCCN(CCO)CCO` [Example 17, n-Decylaminobismethylenephosphonic Acid, Salt with Two Equivalents of Triethanolamine], in experiment [1] (setting [5]), the CPF film is 5.4 and the CPF metal is 5.5. Also, the CPF in experiment [1] (1% inhibitor) amounted to 10.9. Besides, in experiment [2] (1% inhibitor), the “Cathodic delamination (mm total)” value came to 16 mm.
On to `CCCCCCN(CP(=O)(O)O)CP(=O)(O)O.CCN1CCOCC1.CCN1CCOCC1` [Example 10, n-Hexylaminobismethylenephosphonic Acid, Salt with Two Equivalents of N-ethylmorpholine], for which the results for the CPF film in experiment [1] (setting [5]), in experiment [3] (setting [5]) and in experiment [3] (setting [6]) were 4.6, 4.0 and 4.4, respectively. Further, the CPF metal was determined as 5.4 in experiment [1] (setting [5]), 3.8 in experiment [3] (setting [5]) and 6.0 in experiment [3] (setting [6]). Further, the values for the CPF in experiment [1] (1% inhibitor), in experiment [3] (1% inhibitor) and in experiment [3] (2% inhibitor) were 10.0, 7.8 and 10.4, respectively. Besides, the “Cathodic delamination (mm total)” value in experiment [2] (1% inhibitor) was 24 mm. Besides, the “Wet adhesion (Gt value)” value in experiment [4] (1% inhibitor) and in experiment [4] (2% inhibitor) was 0 Gt throughout.
On to `CCCCC(CC)CN(CP(=O)(O)O)CP(=O)(O)O.CCN1CCOCC1.CCN1CCOCC1` (stereo not shown) [Example 4, 2-Ethylhexylaminobismethylenephosphonic Acid, Salt with Two Equivalents N-ethylmorpholine], for which the results for the CPF film in experiment [1] (setting [5]), in experiment [3] (setting [5]) and in experiment [3] (setting [6]) were 5.0, 4.0 and 5.0, respectively. The CPF metal was found to be 5.0 in experiment [1] (setting [5]), 2.6 in experiment [3] (setting [5]) and 4.8 in experiment [3] (setting [6]). In addition, the values for the CPF in experiment [1] (1% inhibitor), in experiment [3] (1% inhibitor) and in experiment [3] (2% inhibitor) were 10.0, 6.6 and 9.8, respectively. In addition, in experiment [2] (1% inhibitor), the “Cathodic delamination (mm total)” value is 22 mm. Further, the “Wet adhesion (Gt value)” value in experiment [4] (1% inhibitor) and in experiment [4] (2% inhibitor) was 0 Gt in each case.
`CCCCCCCCCCCCCCN(CP(=O)(O)O)CP(=O)(O)O.CCN1CCOCC1.CCN1CCOCC1` [Example 6, n-Tetradecylaminobismethylenephosphonic Acid, Salt with Two Equivalents of N-ethylmorpholine]: the results for the CPF film in experiment [1] (setting [5]), in experiment [3] (setting [5]) and in experiment [3] (setting [6]) were 5.4, 4.6 and 5.2, respectively. The CPF metal was determined as 5.0 in experiment [1] (setting [5]), 5.0 in experiment [3] (setting [5]) and 4.5 in experiment [3] (setting [6]). The CPF in experiment [1] (1% inhibitor) came out at 10.2; in experiment [3] (1% inhibitor), 9.6; in experiment [3] (2% inhibitor) it was 9.7. For the same compound, in experiment [2] (1% inhibitor), the “Cathodic delamination (mm total)” value was 18 mm. Besides, the “Wet adhesion (Gt value)” value in experiment [4] (1% inhibitor) and in experiment [4] (2% inhibitor) was 0 Gt in each case.
As for `CCCCCCN(CCCCCC)CP(=O)(O)O.CCN1CCOCC1.CCN1CCOCC1` [Example 2, Dihexylaminomethylenephosphonic Acid, Salt with Two Equivalents of N-ethylmorpholine], the CPF film in experiment [1] (setting [5]) was found to be 4.2; in experiment [3] (setting [5]), 4.0. The CPF metal was found to be 5.2 in experiment [1] (setting [5]) and 4.0 in experiment [3] (setting [5]). Further, the figures for the CPF in experiment [1] (1% inhibitor) and in experiment [3] (1% inhibitor) were 9.4 and 8.0, respectively. In experiment [2] (1% inhibitor), the “Cathodic delamination (mm total)” value is reported as 14 mm. In addition, the “Wet adhesion (Gt value)” value in experiment [4] (1% inhibitor) turned out to be 0 Gt.
Take `CCCCCCCCCCCCCCCCCCN(CP(=O)(O)O)CP(=O)(O)O.CCN1CCOCC1.CCN1CCOCC1` [Example 1, n-Octadecylaminobismethylenephosphonic Acid, Salt with Two Equivalents of N-ethylmorpholine]: the CPF film in experiment [1] (setting [5]) worked out at 6.0; in experiment [1] (setting [6]) it was 6.0; in experiment [3] (setting [5]) it was 4.0; in experiment [3] (setting [6]), 5.0. Further, the CPF metal is on record as 5.0 in experiment [1] (setting [5]), 5.2 in experiment [1] (setting [6]), 4.0 in experiment [3] (setting [5]) and 4.0 in experiment [3] (setting [6]). Besides, the CPF in experiment [1] (1% inhibitor) was determined as 11.0; in experiment [1] (2% inhibitor), 11.2; in experiment [3] (1% inhibitor), 8.0; in experiment [3] (2% inhibitor), 9.0. For the same compound, the “Cathodic delamination (mm total)” value was 28 mm in experiment [2] (1% inhibitor) and 30 mm in experiment [2] (2% inhibitor). Besides, the “Wet adhesion (Gt value)” value in experiment [4] (1% inhibitor) and in experiment [4] (2% inhibitor) was 0 Gt each time.
With `CCCCCCCCN(CCCCCCCC)CP(=O)(O)O.CCN1CCOCC1.CCN1CCOCC1` [Example 3, Dioctylaminomethylenephosphonic Acid, Salt with Two Equivalents of N-ethylmorpholine], in experiment [1] (setting [5]), the CPF film is reported as 4.0 and the CPF metal was 4.0. In addition, in experiment [1] (1% inhibitor), the CPF is 8.0. Further, the “Cathodic delamination (mm total)” value in experiment [2] (1% inhibitor) worked out at 16 mm.
